Results from patent publication US10588866B2, “Stable solid lipid particle composition for improved bioavailability of lipophilic compounds for age-related diseases” (VERDURE SCIENCES, priority 2014, dated 2020).

Assay: Single oral dose pharmacokinetics of curcumin in plasma and mesenteric lymph
Type: in vivo, Sprague-Dawley rats
Settings: Sprague-Dawley, rat, plasma, 75 mg/kg
Procedure: Prior to treatment, the rats were anaesthetized followed by a surgical intervention to cannulate the mesenteric mesenteric lymph duct (for lymph collection) and the carotid artery (for blood collection). The cannulas were externalized and the rats were allowed to recover for 24 hours. Thereafter, either the curcumin suspension or the SLCP dosage form was administered via gavage. Blood (0.25 ml) was sampled prior to and 0.5, 1.0, 2.0, 3.0 and 5.0 hours after administration into vials coated with EDTA. Blood samples were centrifuged to obtain plasma and stored at <−30° C. until analysis. Mesenteric lymph (0.25 ml) was collected prior to and 1 and 5 hours after administration into vials coated with EDTA and stored at <−30° C. until analysis.
Analysis of curcumin and glucuronated curcumin was performed by HPLC with UV-detection coupled to MS according to published methods. […] The Limit of Determination was set to 2.5 ng/ml biological fluid.

- AUC(0-t): 562 ng·h/mL
- Cmax: 190 ng/mL
Structure (SMILES): COc1cc(/C=C/C(=O)CC(=O)/C=C/c2ccc(O)c(OC)c2)ccc1O [Standard, Curcumin]
